Measurements published in publication PMC5814047, “Peptidic inhibitors of insulin-degrading enzyme with potential for dermatological applications discovered via phage display” (PLoS ONE, 2018).
Values joined by “and” are separate entries in the source; they are usually repeats but may differ in a detail not shown here. Equal values may be shown once. “Also recorded” adds a separate entry of the source. Bridge positions count the residues as written; N and C are the ends. Peptide text beside a SMILES is read from it.

Columns and labels:
[1] = system: alpha-1 type I collagen in primary murine skin fibroblasts; assay: Western blotting of cell-associated alpha-1 type I collagen; assay type: cell-based; settings: for COL1A1 Adj. Band Vol. normalized to control on each gel: control = Day 0 COL1A1+DMSO sample; for Normalized COL1A1/GAPDH ratio, Mean: mean of 4 replicates; for COL1A1/GAPDH ratio normalized to Day 0, DMSO only control, Mean: mean of 4 replicates (Figure 4E)
Method: (§1) Insulin promotes wound healing and overall skin health by affecting a number of processes, including cell proliferation, cell migration, and the production and secretion of ECM components, particularly type I collagen. We therefore assessed the ability of P12-3A to influence these processes in cultured skin fibroblasts and keratinocytes. To that end, primary mouse skin fibroblasts were grown for 4 d in multiple concentrations of insulin in the presence or absence of P12-3A, and insulin concentration over time was monitored by ELISA. […] Finally, the effects of P12-3A on collagen production in were assessed at both the transcriptional and the posttranslational level in confluent monolayers of fibroblasts. After 4 d of treatment with P12-3A (100 μM), mRNA levels for the major form of collagen, alpha-1 type I collagen (COL1A1), were quantified by RT-PCR and found to be increased to ~2.6 times the levels of untreated cells (Fig 4C). To assess overall levels of collagen production and secretion, we quantified levels of hydroxyproline, a modified amino acid present almost exclusively in collagen proteins. […] Western blotting also confirmed that mature, cell-associated collagen levels were increased in the presence of P12-3A (Fig 4E).
(§2) Fig 4 Effects of P12-3A on cultured skin cells. A, Insulin concentrations as a function of time in logarithmically growing primary murine skin fibroblasts in the absence or presence of P12-3A (100 μM). […] Data are mean ± SEM of 4 independent replications. *P<0.05, **P<0.01. B, Proliferation of cells in the absence or presence of P12-3A (100 μM). Data are mean ± SEM of 6 independent replications. […] C,D,E, P12-3A (100 μM) potentiates insulin-induced collagen production in skin fibroblasts. Collagen production was assessed by COL1A1 mRNA levels (C), levels of hydroxyproline secreted into the medium (D), and cell-associated mature alpha-1 type I collagen levels detected by Western blotting (E). Data are mean ± SD of 4 independent replications. *P<0.05, **P<0.01. […] Migration of HaCaT cells 48 h after induction of a scratch wound in the presence of the indicated quantities of insulin and/or P12-3A (100 μM). Data are mean ± SEM of 6 independent replications. *P<0.05, **P<0.01.
Protein was collected using the M-Per Mammalian Extraction Reagent and the concentration was quantified using the Pierce™BCA Protein Assay Kit according to manufacturer’s recommendations (Thermo Fisher Scientific, Waltham, MA, USA). Protein (30 μg/well) was separated SDS-PAGE under reducing conditions using Novex™ 10% polyacrylamide tris-glycine mini gels and transferred to nitrocellulose membranes as described. Briefly, membranes were blocked in 5% non-fat milk in tris-buffered saline supplemented with 0.2% Tween-20 (TBST), cut into segments and incubated for 1 h at room temperature with anti-alpha-1 type I collagen (1:5000) and anti-GAPDH (1:10,000) antibodies, washed extensively in TBST, then probed with anti-rabbit (1:20,000) or anti-goat (1:50,000) secondary antibodies, respectively, and detected by enhanced chemoluminescence using SuperSignal West Pico Substrate. Protein expression, normalized to GAPDH levels, was quantified using the band analysis tools of ImageLab software, version 4.1 (Bio-Rad Laboratories, Inc., Hercules, CA, USA).

[2] = system: primary murine skin fibroblasts; assay: Cell proliferation (CellTiter 96 AQueous); assay type: cell-based; settings: for Cell count, Mean / Cell count: P12-3A 100 uM, 100nM insulin added, cells per well; for Cell count, Mean: N 6; for Cell count: individual replicates
Method: as §1, §2
Primary murine skin fibroblasts cells (1 x 10^5/well) were plated in 96-well plates, using separate plates for each timepoint and endpoint. Cell proliferation was quantified using the CellTiter 96® AQueous Non-Radioactive Cell Proliferation Assay (Promega Corp., Madison, WI, USA) according to manufacturer’s recommendations.

CC(C)C[C@H](NC(=O)[C@H](CO)NC(=O)[C@@H](N)CCC(N)=O)C(=O)N1CCC[C@H]1C(=O)N[C@@H](Cc1c[nH]c2ccccc12)C(=O)N[C@H]1CSSC[C@@H](C(=O)N[C@H](C(=O)N[C@H](C(N)=O)[C@@H](C)O)C(C)C)NC(=O)[C@H](Cc2c[nH]cn2)NC(=O)[C@@H]2CCCN2C(=O)[C@H](Cc2ccc(O)cc2)NC1=O [P12-3A] (H-QSLPWCYPHCVT-NH2; disulfide 6-10 (inferred))
COL1A1/GAPDH ratio normalized to Day 0, DMSO only control ([1]; Day 0, individual replicates): 102.562 and 78.683 and 108.954 and 116.015 | Normalized COL1A1/GAPDH ratio from same sample ([1]; Day 0, individual replicates): 1.131 (2×) and 0.868 (2×) and 1.202 (2×) and 1.28 and 1.280 | COL1A1 Adj. Band Vol. normalized to control on each gel ([1]; Day 0, individual replicates): 1.022 and 0.7932 and 0.9786 and 1.091 | Normalized COL1A1/GAPDH ratio, Mean ([1]; Day 0): 1.120 | COL1A1/GAPDH ratio normalized to Day 0, DMSO only control, Mean ([1]; Day 0): 102 | Normalized COL1A1/GAPDH ratio from same sample ([1]; Day 4, individual replicates): 4.269 (2×) and 4.793 (2×) and 3.93 and 3.135 (2×) and 3.930 | COL1A1 Adj. Band Vol. normalized to control on each gel ([1]; Day 4, individual replicates): 3.82 and 4.41 and 3.218 and 2.717 | Normalized COL1A1/GAPDH ratio, Mean ([1]; Day 4): 4.032 | COL1A1/GAPDH ratio normalized to Day 0, DMSO only control, Mean ([1]; Day 4): 345 | mature, cell-associated collagen levels ([1]; in the presence of P12-3A (100 μM)): increased | cell proliferation relative to control cells ([2]; 100 μM P12-3A, 10 nM insulin): modestly increased; also recorded: No significant differences were observed | Cell count, Mean ([2]; t 0 d): 0.15 *100,000 | Cell count ([2]; t 0 d): 0.1682 *100,000 and 0.1108 *100,000 and 0.1565 *100,000 and 0.1271 *100,000 and 0.1836 *100,000 and 0.1526 *100,000 | Cell count, Mean ([2]; t 1 d): 0.28 *100,000 | Cell count ([2]; t 1 d): 0.0908 *100,000 and 0.3439 *100,000 and 0.3368 *100,000 and 0.2676 *100,000 and 0.3256 *100,000 and 0.3423 *100,000 | Cell count, Mean ([2]; t 2 d): 0.63 *100,000 | Cell count ([2]; t 2 d): 0.4380 *100,000 and 0.6462 *100,000 and 0.8125 *100,000 and 0.5756 *100,000 and 0.7135 *100,000 and 0.6125 *100,000 | Cell count, Mean ([2]; t 3 d): 1.33 *100,000 | Cell count ([2]; t 3 d): 1.4714 *100,000 and 1.6270 *100,000 and 1.4135 *100,000 and 1.4988 *100,000 and 1.1573 *100,000 and 0.8293 *100,000 | Cell count, Mean ([2]; t 4 d): 2.46 *100,000 | Cell count ([2]; t 4 d): 3.2440 *100,000 and 1.8308 *100,000 and 1.5133 *100,000 and 1.9615 *100,000 and 2.9117 *100,000 and 3.3184 *100,000
